Laboratory results reported in patent US20110144014A1, “CYTOKINE RECEPTOR MODULATORS AND USES THEREOF” (CENTRE HOSPITALIER UNIVERSITAIRE SAINTE-JUSTINE, priority 2005, published 2011).
Where a SMILES comes first, the peptide text is derived from it. [ ]: non-standard residue; d: D form.

Legend:
[1] = test system: IL-1R/IL-1RacP; experiment: IL-1β-induced cGMP production in brain tissues ex vivo
Protocol: For these newly derived peptides, ex vivo experiments were then conducted. Brain tissues were incubated with the peptides and IL-1β and cGMP was measured with a commercial kit (Amersham Bioscience, cGMP assay biotrack™ system). API-101.10 already inhibited 85% of IL-1β-induced cGMP production (10^−6M) and API-101.103 and 101.106 inhibited more than 90% of cGMP production. Thus, removal of the negative charge of the glutamate and removal of the threonine can improve the potency of the antagonist.

[2] = target: T1, IL-1R (Rattus norvegicus, UniProt Q02955); experiment: Cross-linking and radioligand binding of I125-API-101.10 on thymocytes
T1 construct: Thymocytes freshly isolated from rat thymus; endogenous in cells; host or cells: freshly isolated rat thymocytes
T1 sequence (Q02955 20-576): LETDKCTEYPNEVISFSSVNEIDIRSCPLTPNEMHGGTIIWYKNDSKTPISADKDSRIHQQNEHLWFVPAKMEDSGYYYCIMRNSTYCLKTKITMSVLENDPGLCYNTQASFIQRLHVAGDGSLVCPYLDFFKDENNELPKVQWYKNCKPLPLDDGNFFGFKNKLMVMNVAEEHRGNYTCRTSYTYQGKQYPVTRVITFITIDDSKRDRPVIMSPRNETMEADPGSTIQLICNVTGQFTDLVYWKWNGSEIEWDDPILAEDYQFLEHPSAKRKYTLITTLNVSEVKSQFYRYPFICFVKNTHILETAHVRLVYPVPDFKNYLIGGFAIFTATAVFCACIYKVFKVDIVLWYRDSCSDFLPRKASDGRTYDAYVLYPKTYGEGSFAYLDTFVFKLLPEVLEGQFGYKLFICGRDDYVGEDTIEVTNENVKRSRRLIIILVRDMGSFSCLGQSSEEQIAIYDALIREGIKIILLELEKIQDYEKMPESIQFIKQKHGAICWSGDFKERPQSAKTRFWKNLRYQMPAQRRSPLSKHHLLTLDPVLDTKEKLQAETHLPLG
T1 sequence (Q63621 21-570 partner): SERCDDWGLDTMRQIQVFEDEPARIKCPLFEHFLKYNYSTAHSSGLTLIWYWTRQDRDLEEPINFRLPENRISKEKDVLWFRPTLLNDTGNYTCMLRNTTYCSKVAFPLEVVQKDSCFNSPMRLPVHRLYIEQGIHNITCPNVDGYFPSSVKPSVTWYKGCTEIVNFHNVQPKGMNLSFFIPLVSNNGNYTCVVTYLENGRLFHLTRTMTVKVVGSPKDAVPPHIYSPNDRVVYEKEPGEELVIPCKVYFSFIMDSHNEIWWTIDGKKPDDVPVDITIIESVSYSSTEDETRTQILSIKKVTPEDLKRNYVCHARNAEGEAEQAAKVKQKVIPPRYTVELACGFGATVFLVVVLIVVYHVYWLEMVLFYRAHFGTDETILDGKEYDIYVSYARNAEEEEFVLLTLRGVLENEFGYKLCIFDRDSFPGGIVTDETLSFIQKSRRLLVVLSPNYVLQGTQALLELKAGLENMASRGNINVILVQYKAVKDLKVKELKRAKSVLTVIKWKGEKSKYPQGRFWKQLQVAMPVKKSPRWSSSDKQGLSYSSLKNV
From the text: (§1) Thymocytes freshly isolated from rat thymus were resuspended at a concentration of 10^7 cell/ml in PBS (phosphate buffered saline) buffer pH 8.0 (reaction buffer) and washed three times with ice-cold reaction buffer. The reaction mixture for each sample contained: 10^6 cells and 10^7 cpm of 125API-101.10. One sample also contained […] of cold API-101.10 peptide. In the negative control HEK-293 cells containing a negligible amount of IL-1R were used. Each sample volume was then raised to 250 μl with reaction buffer. Samples were incubated at room temperature and/or 37° for 45 minutes to allow peptide binding. The non-permeable cross-linker BS3 (Bis(sulfosuccinimidyl)suberate) was then added to a final concentration of 2.5 mM and samples were incubated at 4° C. for 30 minutes to minimize active internalization of BS3 (11.4 Å) (Pierce) (Partis, J. Prot. Chem. 293:263-277, 1983; Cox et al., J. Immunol. 145:1719-1726, 1990; and Knoller et al., J. Biol. Chem. 266:2795-2804, 1991). The reaction was quenched with 20 mM TRIS pH 7.5 for 15 minutes at room temperature. Cells were centrifuged at 4000 rpm for 10 minutes, lysed for 30 minutes on ice with 150 μl of RIPA buffer (50 mM Tris HCl pH7.4; 150 mM NaCl; 1 mM EDTA; 2 mM Na3VO4; 1 mM NaF; 1% NP-40; 0.25% Nadeoxycholate). […] Radioactivity was determined is every cell lysate with a Packard CobraII autogamma counter.

[3] = test system: HEK293 cells; experiment: Binding of I125-API-101.10 in HEK293 cells not containing IL-1R
From the text: as §1

displacement of radioactive IL-1α ([2]; I125-IL-1α 100 pM, 101.10 500 nM): unable to displace
displacement of 125I-API-101.10 by non-radioactive peptide ([2]; cross-linking, autoradiogram): displace almost all
Compound: CC(C)C[C@@H](NC(=O)[C@@H](CCC(=O)O)NC(=O)[C@H](NC(=O)[C@H](NC(=O)[C@@H](Cc1ccc(O)cc1)NC(=O)[C@H](N)CCCNC(=N)N)[C@H](C)O)C(C)C)C(=O)N[C@H](C)C(N)=O [API-101.10, RYTVELA] (H-[dR][dY][dT][dV][dE][dL][dA]-NH2; N-terminus and C-terminus assumed)
inhibition of IL-1β-induced cGMP production ([1]; brain tissues, 10^−6M): 85%
activity compared with Kineret ([1]; data not shown): superior
binding in cells not containing IL-1R [3]: does not occur
